pIC50: −log10 of the molar value.
These compounds were tested against T1, human TRPV4 (hTRPV4/CHO cells) (Homo sapiens, UniProt Q9HBA0) (assay: Test Example 1: TRPV4 inhibitory activity (IC50 value), 4α-PDD stimulation, Fluo4 calcium fluorescence (FLIPR TETRA)). Conditions: 1 μmol/L 4α-PDD, Fluo4-AM, read-out: TRPV4 inhibitory activity (IC50 value).
T1 construct: expressed in transfected cells; host or cells: CHO-K1
Assay type: cell-based

T1 sequence (Q9HBA0 whole entry): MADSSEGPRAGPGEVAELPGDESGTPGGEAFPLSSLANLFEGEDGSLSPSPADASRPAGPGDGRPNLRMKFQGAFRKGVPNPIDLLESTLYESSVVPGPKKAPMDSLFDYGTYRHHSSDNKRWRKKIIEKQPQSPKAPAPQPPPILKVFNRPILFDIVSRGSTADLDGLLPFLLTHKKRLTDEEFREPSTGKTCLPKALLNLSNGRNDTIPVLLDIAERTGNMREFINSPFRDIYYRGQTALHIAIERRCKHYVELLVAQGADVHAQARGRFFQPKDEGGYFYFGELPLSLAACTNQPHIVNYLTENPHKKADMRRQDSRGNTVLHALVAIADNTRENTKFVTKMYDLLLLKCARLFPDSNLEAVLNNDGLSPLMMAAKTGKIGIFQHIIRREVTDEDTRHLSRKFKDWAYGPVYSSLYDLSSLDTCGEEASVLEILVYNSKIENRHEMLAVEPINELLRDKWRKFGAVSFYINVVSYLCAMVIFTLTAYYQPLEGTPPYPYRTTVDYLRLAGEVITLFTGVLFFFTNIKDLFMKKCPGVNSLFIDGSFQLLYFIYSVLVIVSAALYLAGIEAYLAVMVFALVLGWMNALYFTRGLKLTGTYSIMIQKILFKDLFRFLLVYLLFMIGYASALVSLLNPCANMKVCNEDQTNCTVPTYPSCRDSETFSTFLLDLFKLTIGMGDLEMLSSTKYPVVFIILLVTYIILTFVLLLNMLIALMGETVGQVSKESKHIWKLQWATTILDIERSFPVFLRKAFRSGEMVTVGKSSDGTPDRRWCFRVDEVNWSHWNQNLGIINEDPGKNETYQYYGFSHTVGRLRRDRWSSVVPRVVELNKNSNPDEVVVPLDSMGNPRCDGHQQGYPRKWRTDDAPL

Compound CC(=O)NCc1nc(CO)sc1-c1csc(NC(=O)Cc2ccc(S(=O)(=O)C(F)(F)F)cc2)n1 [Compound I-382] has a pIC50 of 7.66.

Same assay, conditions: Test Example 1, 4α-PDD stimulation, read-out: Test 1 IC50

Cc1nc(CO)sc1-c1csc(NC(=O)[C@H]2C[C@H](OCC(F)(F)F)C2)n1 [Compound I-357] and Cc1nc(CO)sc1-c1csc(NC(=O)[C@H]2C[C@@H](N(C)Cc3ccc(C(F)(F)F)cc3)C2)n1 [Compound I-318] cannot be ordered by pIC50: over 7.00 for the first, over 7.00 for the second.

COC(=O)NCc1nc(C)c(-c2csc(NC(=O)Cc3ccc(S(=O)(=O)C(F)(F)F)cc3)n2)s1 [Compound I-400] and CC(=O)NCc1nc(C)c(-c2csc(NC(=O)Cc3ccc(S(=O)(=O)C(F)(F)F)cc3)n2)s1 [Compound I-397] fall in the same range of pIC50: 6.00 to 7.00 for the first, 6.00 to 7.00 for the second.

Cc1nc(C)c(-c2csc(NC(=O)[C@@H]3C[C@H](c4ccccc4)CN3C(=O)C(F)(F)F)n2)s1 [Compound I-271] and Cc1nc(C)c(-c2csc(NC(=O)[C@@H]3C[C@@H](Oc4ccccc4)CN3C(=O)C(F)(F)F)n2)s1 [Compound I-250] cannot be ordered by pIC50: over 7.00 for the first, over 7.00 for the second.

N#CCc1nc(CO)sc1-c1csc(NC(=O)C2CN(c3ncc(C(F)(F)F)cn3)C2)n1 [Compound I-395] and N#CCc1nc(CO)sc1-c1csc(NC(=O)C2CN(c3ccc(C(F)(F)F)cc3)C2)n1 [Compound I-334] cannot be ordered by pIC50: over 7.00 for the first, over 7.00 for the second.

Compared with Cc1nc(C(F)F)sc1-c1csc(NC(=O)C2CC2)n1 [Compound I-109], Cc1nc(C(F)F)sc1-c1csc(NC(=O)Cn2cc(Cl)cn2)n1 [Compound I-110] is higher in pIC50: 5.10 to 6.00 for the first, 6.00 to 7.00 for the second.

Compared with Cc1nc(C)c(-c2csc(NC(=O)Cc3ccc(S(=O)(=O)N(C)c4cccnc4)cc3)n2)s1 [Compound I-165], Cc1nc(C)c(-c2csc(NC(=O)Cc3ccc(S(=O)(=O)N(C)c4ccc(Cl)cc4)cc3)n2)s1 [Compound I-160] is higher in pIC50: 6.00 to 7.00 for the first, over 7.00 for the second. The second is the more potent here.

O=C(Cc1ccc(S(=O)(=O)CC(F)(F)F)cc1)Nc1nc(-c2cccs2)cs1 [II-6] and Cc1ccc(-c2csc(NC(=O)Cc3ccc(S(=O)(=O)CC(F)(F)F)cc3)n2)s1 [II-8] fall in the same range of pIC50: 6.00 to 7.00 for the first, 6.00 to 7.00 for the second.

First: COc1ccccc1CC(=O)Nc1nc(-c2sc(C)nc2C)cs1 [Compound I-99]
Second: Cc1nc(C)c(-c2csc(NC(=O)Cc3ccccc3C#N)n2)s1 [Compound I-121]
The pIC50 of the first is higher: over 7.00 for the first, 6.00 to 7.00 for the second.

Compared with Cc1nc(C)c(-c2csc(Nc3ccncc3)n2)s1 [II-41], Cc1nc(C)c(-c2csc(NCCOc3ccccc3)n2)s1 [II-47] is higher in pIC50: 5.10 to 6.00 for the first, 6.00 to 7.00 for the second.

First: NS(=O)(=O)NCc1nc(CO)sc1-c1csc(NC(=O)Cc2ccc(S(=O)(=O)C(F)(F)F)cc2)n1 [Compound I-384]
Second: CC(=O)NCc1nc(CO)sc1-c1csc(NC(=O)Cc2ccc(S(=O)(=O)C(F)(F)F)cc2)n1 [Compound I-382]
The pIC50 of the first is lower: 6.00 to 7.00 for the first, over 7.00 for the second. The second is the more potent here.

Cc1nc(C(=O)NS(C)(=O)=O)sc1-c1csc(NC(=O)Cc2c(F)cccc2F)n1 [Compound I-115] and Cc1nc(C(=O)N(C)C)sc1-c1csc(NC(=O)Cc2c(F)cccc2F)n1 [Compound I-114] fall in the same range of pIC50: 5.10 to 6.00 for the first, 5.10 to 6.00 for the second.

Compared with O=C(Nc1nc(-c2sc(CO)nc2CO)cs1)[C@H]1C[C@@H](NCc2ccc(C(F)(F)F)cc2)C1 [Compound I-317], Cc1nc(C)c(-c2csc(NC(=O)[C@H]3C[C@@H](OCc4ccc(C(F)(F)F)cc4)C3)n2)s1 [Compound I-354] is higher in pIC50: 5.10 to 6.00 for the first, over 7.00 for the second.

Compared with Cc1nc(C)c(-c2csc(NC(=O)C3(F)CN(c4ccc(C(F)(F)F)cc4)C3)n2)s1 (racemic) [Compound I-533], Cc1nc(C)c(-c2csc(NC(=O)CC3CN(Cc4ccc(C(F)(F)F)cc4)C3)n2)s1 [Compound I-491] is lower in pIC50: over 7.00 for the first, 5.10 to 6.00 for the second.

Compared with Cc1nc(CO)sc1-c1csc(NC(=O)C2C[C@H](C(F)(F)F)CN2C(=O)C(F)(F)F)n1 (stereo partly shown) [Compound I-465], Cc1nc(CO)sc1-c1csc(NC(=O)[C@@H]2C[C@@H](c3ccccc3)CN2C(=O)OCC(F)(F)F)n1 [Compound I-314] is higher in pIC50: 6.00 to 7.00 for the first, over 7.00 for the second.

Cc1nc(CO)sc1-c1csc(NC(=O)CN2CCC(c3ccccc3)CC2)n1 [Compound I-171] and Cc1nc(C)c(-c2csc(NC(=O)CN3CCC(c4ccccc4)CC3)n2)s1 [Compound I-152] fall in the same range of pIC50: 6.00 to 7.00 for the first, 6.00 to 7.00 for the second.

Compared with Cc1nc(CO)sc1-c1csc(NC(=O)C2CC(=O)N(c3ccccc3)C2)n1 (stereo not shown) [Compound I-199], Cc1nc(CO)sc1-c1csc(NC(=O)C2CCN(c3ccccc3)C2)n1 (stereo not shown) [Compound I-185] is higher in pIC50: 6.00 to 7.00 for the first, over 7.00 for the second. The second is the more potent here.

First: Cc1nc(C(O)CO)sc1-c1csc(NC(=O)Cc2c(F)cccc2F)n1 (stereo not shown) [Compound I-133]
Second: Cc1nc(C(C)(C)O)c(-c2csc(NC(=O)Cc3c(F)cccc3F)n2)s1 [Compound I-128]
The pIC50 of the first is lower: 5.10 to 6.00 for the first, 6.00 to 7.00 for the second.

Compared with Cc1nc(C)c(-c2csc(NC(=O)Cc3ccc(F)c(C#N)c3)n2)s1 [Compound I-78], Cc1nc(C)c(-c2csc(NC(=N)Cc3ccc(Cl)cc3)n2)s1 [II-31] is lower in pIC50: over 7.00 for the first, 5.10 to 6.00 for the second. The first is the more potent here.

CNC(=O)NCc1nc(CO)sc1-c1csc(NC(=O)Cc2ccc(S(=O)(=O)C(F)(F)F)cc2)n1 [Compound I-389] and CCOCC(=O)NCc1nc(CO)sc1-c1csc(NC(=O)Cc2ccc(S(=O)(=O)C(F)(F)F)cc2)n1 [Compound I-438] cannot be ordered by pIC50: over 7.00 for the first, over 7.00 for the second.

First: Cc1nc(C)c(-c2nc(NC(=O)Cc3c(F)cccc3F)sc2-c2cnn(C)c2)s1 [Compound I-62]
Second: Cc1nc(C)c(-c2csc(NC(=O)Cn3cc(-c4cccc(Cl)c4)cn3)n2)s1 [Compound I-146]
The pIC50 of the first is lower: 5.10 to 6.00 for the first, over 7.00 for the second. The second is the more potent here.

First: Cc1nc(C)c(-c2csc(NC(=O)CC3CN(c4ncc(C(F)(F)F)cn4)C3)n2)s1 [Compound I-401]
Second: Cc1nc(C)c(-c2csc(NC(=O)C3CN(c4ncc(C(F)(F)F)cn4)C3)n2)s1 [Compound I-278]
The pIC50 of the first is lower: 6.00 to 7.00 for the first, over 7.00 for the second.

First: Cc1[nH]c(=O)sc1-c1csc(NC(=O)Cc2ccc(S(=O)(=O)C(F)(F)F)cc2)n1 [Compound I-451]
Second: Cc1nc(CCl)c(-c2csc(NC(=O)Cc3ccc(S(=O)(=O)C(F)(F)F)cc3)n2)s1 [Compound I-484]
The pIC50 of the first is lower: 6.00 to 7.00 for the first, over 7.00 for the second.

Cc1nc(C)c(-c2csc(NC(=O)Cc3cccc(C(=O)Nc4ccc(C(F)(F)F)cc4)n3)n2)s1 [Compound I-508] and Cc1nc([C@H](C)O)sc1-c1csc(NC(=O)Cc2cc(Br)cc(C(=O)Nc3ccc(C(F)(F)F)cc3)c2)n1 [Compound I-523] cannot be ordered by pIC50: over 7.00 for the first, over 7.00 for the second.

First: Cc1nc(C)c(-c2csc(N(Cc3ccc(C(F)(F)F)cc3)C(=O)C3CN(O)C3)n2)s1 [Compound I-374]
Second: Cc1nc(C)c(-c2csc(NC(=O)CC3CN(c4ccc(C(F)(F)F)cn4)C3)n2)s1 [Compound I-493]
The pIC50 of the first is lower: 5.10 to 6.00 for the first, 6.00 to 7.00 for the second. The second is the more potent here.

First: O=C(Nc1nc(-c2sc(CO)nc2CO)cs1)C1CN(c2ccccc2)C1 [Compound I-371]
Second: Cc1nc(CO)sc1-c1csc(NC(=O)C2CCN(Cc3ccccc3)C2)n1 (stereo not shown) [Compound I-209]
The pIC50 of the first is higher: 6.00 to 7.00 for the first, 5.10 to 6.00 for the second. The first is the more potent here.

CCOC(=O)N1C[C@H](c2ccccc2)C[C@H]1C(=O)Nc1nc(-c2sc(CO)nc2C)cs1 [Compound I-313] and COC(=O)N1C[C@H](c2ccccc2)C[C@H]1C(=O)Nc1nc(-c2sc(CO)nc2C)cs1 [Compound I-323] cannot be ordered by pIC50: over 7.00 for the first, over 7.00 for the second.

Cc1nc(CO)sc1-c1csc(NC(=O)[C@@H]2C[C@@H](c3ccccc3)CN2C(=O)C(C)C)n1 [Compound I-312] and Cc1nc(C)c(-c2csc(NC(=O)[C@H]3C[C@@H](c4ccccc4)CN3C(=O)OC(C)(C)C)n2)s1 [Compound I-243] fall in the same range of pIC50: 6.00 to 7.00 for the first, 6.00 to 7.00 for the second.

First: Cc1nc(CO)sc1-c1csc(NC(=O)Cc2ccc(S(=O)(=O)C(F)(F)F)cc2)n1 [Compound I-142]
Second: CC(OC(N)=O)c1nc(CO)sc1-c1csc(NC(=O)Cc2ccc(S(=O)(=O)C(F)(F)F)cc2)n1 (single isomer, unassigned) [Compound I-479]
The pIC50 of the first is higher: over 7.00 for the first, 5.10 to 6.00 for the second. The first is the more potent here.

First: Cc1nc(C(C)O)oc1-c1csc(NC(=O)Cn2cc(C(F)(F)F)cn2)n1 (racemic) [Compound I-420]
Second: Cc1nc(C)c(-c2csc(NC(=O)Cn3cc(-c4ccccc4)cn3)n2)s1 [Compound I-134]
The pIC50 of the first is lower: 5.10 to 6.00 for the first, over 7.00 for the second.

First: Cc1nc(CO)sc1-c1csc(NC(=O)C2CN(c3cccnc3C(F)(F)F)C2)n1 [Compound I-310]
Second: Cc1nc(CO)sc1-c1csc(NC(=O)C2CC(N3CCC(F)(F)C3)C2)n1 (stereo not shown) [Compound I-361]
The pIC50 of the first is higher: over 7.00 for the first, 5.10 to 6.00 for the second.

Cc1nc(C)c(-c2csc(NC(=O)Cn3cc(C4CC4)nn3)n2)s1 [Compound I-430] and Cc1nc(C)c(-c2csc(NC(=O)Cn3cc(CNc4ccccc4)nn3)n2)s1 [Compound I-425] fall in the same range of pIC50: 6.00 to 7.00 for the first, 6.00 to 7.00 for the second.

Compared with O=C(Cc1ccc(S(=O)(=O)C(F)(F)F)cc1)Nc1nc(-c2sc(CO)nc2CC(=O)N2CCOCC2)cs1 [Compound I-376], NC(=O)CCc1nc(CO)sc1-c1csc(NC(=O)Cc2ccc(S(=O)(=O)C(F)(F)F)cc2)n1 [Compound I-407] is higher in pIC50: 5.10 to 6.00 for the first, 6.00 to 7.00 for the second.

First: CC(=O)N(C)Cc1nc(CO)sc1-c1csc(NC(=O)Cc2ccc(S(=O)(=O)C(F)(F)F)cc2)n1 [Compound I-393]
Second: NC(=O)OCCc1nc(CO)sc1-c1csc(NC(=O)Cc2ccc(S(=O)(=O)C(F)(F)F)cc2)n1 [Compound I-370]
The pIC50 of the first is lower: 6.00 to 7.00 for the first, over 7.00 for the second. The second is the more potent here.

First: NC(=O)OCC(=O)NCc1nc(CO)sc1-c1csc(NC(=O)Cc2ccc(S(=O)(=O)C(F)(F)F)cc2)n1 [Compound I-440]
Second: Cc1nc([C@H](C)O)sc1-c1csc(NC(=O)Cc2cc(Br)cc(C(=O)N[C@H](c3ccccc3)C(F)(F)F)c2)n1 [Compound I-524]
The pIC50 of the first is lower: 6.00 to 7.00 for the first, over 7.00 for the second.

First: Cc1nc(C)c(-c2csc(NC(=O)Cc3cccc(C(=O)Nc4ccccc4)c3)n2)s1 [Compound I-469]
Second: Cc1nc(C)c(-c2csc(NC(=O)Cc3cc(C(=O)N[C@H](c4ccccc4)C(F)(F)F)cc(-c4nnn[nH]4)c3)n2)s1 [Compound I-520]
The pIC50 of the first is higher: over 7.00 for the first, 5.10 to 6.00 for the second. The first is the more potent here.

Cc1nc(C)c(-c2csc(NC(=O)CN3CCCC3c3ccccc3)n2)s1 (stereo not shown) [Compound I-154] and Cc1nc(C)c(-c2csc(NC(=O)CN3CCOC(c4ccccc4)C3)n2)s1 (stereo not shown) [Compound I-170] fall in the same range of pIC50: 6.00 to 7.00 for the first, 6.00 to 7.00 for the second.

First: Cc1nc(C)c(-c2csc(NC(=O)C3Cc4ccccc4O3)n2)s1 (stereo not shown) [Compound I-180]
Second: Cc1nc(C)c(-c2csc(NC(=O)N3CCC(C(F)(F)F)CC3)n2)s1 [Compound I-89]
The pIC50 of the first is higher: over 7.00 for the first, 5.10 to 6.00 for the second.

For O=C(Nc1nc(-c2sc(CO)nc2CO)cs1)C1CC(OCC2CC2)C1 (stereo not shown) [Compound I-339], the pIC50 was 5.10 to 6.00.
